Test results from patent publication US8691838B2, “Heterocycles as protein kinase inhibitors” (Amgen Inc., priority 2008, dated 2014).

Molecular target: c-Met (Homo sapiens, UniProt P08581)
Experiment: c-Met receptor assay (HTRF kinase assay with GST-cMet (P) enzyme, gastrin substrate)
Experimental: A Kinase reaction Buffer was prepared as follows: 60 mM HEPES pH 7.4; 50 mM NaCl; 20 mM MgCl2; 5 mM MnCl2. When the assay was carried out, the following ingredients were freshly added: 2 mM DTT; 0.05% BSA; 0.1 mM Na3OV4.
Then incubated the plate at RT for 30 min.
KM ATP and KM gastrin for various enzymes were determined by HTRF/^33P labeling and HTRF methods.

c-Met, sequence (P08581 1058-1365): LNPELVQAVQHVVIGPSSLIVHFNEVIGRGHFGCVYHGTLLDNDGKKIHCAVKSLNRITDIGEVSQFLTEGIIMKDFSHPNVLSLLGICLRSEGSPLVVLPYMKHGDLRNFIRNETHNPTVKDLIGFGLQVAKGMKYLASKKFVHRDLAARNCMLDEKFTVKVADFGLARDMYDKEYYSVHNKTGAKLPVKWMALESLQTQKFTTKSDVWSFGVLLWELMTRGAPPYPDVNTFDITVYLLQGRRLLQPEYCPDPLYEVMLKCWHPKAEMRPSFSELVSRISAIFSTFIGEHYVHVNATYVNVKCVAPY

Ki [nM] | SMILES
366 | O=C1c2c(nnn2Cc2ccc3ncccc3c2)CCN1c1ccccc1 [Example 1, 5-phenyl-3-(quinolin-6-ylmethyl)-6,7-dihydro-3H-[1,2,3]triazolo[4,5-c]pyridin-4(5H)-one]
473 | C[C@H](c1ccc2ncccc2c1)n1nnc2ccn(-c3ccc(Cl)c(C(F)(F)F)c3)c(=O)c21 [Example 30, (R)-5-(4-chloro-3-(trifluoromethyl)phenyl)-3-(1-(quinolin-6-yl)ethyl)-3H-[1,2,3]triazolo[4,5-c]pyridin-4(5H)-one]
132 | Cc1cc(N2CCc3nnn([C@H](C)c4ccc5ncccc5c4)c3C2=O)sn1 [Example 5, (R)-5-(3-methylisothiazol-5-yl)-3-(1-(quinolin-6-yl)ethyl)-6,7-dihydro-3H-[1,2,3]triazolo[4,5-c]pyridin-4(5H)-one]
1090 | C[C@@H](c1ccc2ncccc2c1)n1nnc2ccn(Cc3ccccc3)c(=O)c21 [Example 31, (S)-5-benzyl-3-(1-(quinolin-6-yl)ethyl)-3H-[1,2,3]triazolo[4,5-c]pyridin-4(5H)-one]
8 | Cc1cc(N2CCc3nnn([C@@H](C)c4ccc5ncccc5c4)c3C2=O)sn1 [Example 4, (S)-5-(3-methylisothiazol-5-yl)-3-(1-(quinolin-6-yl)ethyl)-6,7-dihydro-3H-[1,2,3]triazolo[4,5-c]pyridin-4(5H)-one]
1310 | C[C@H](c1ccc2ncccc2c1)n1nnc2ccn(Cc3ccccc3)c(=O)c21 [Example 32, (R)-5-benzyl-3-(1-(quinolin-6-yl)ethyl)-3H-[1,2,3]triazolo[4,5-c]pyridin-4(5H)-one]
461 | CC(c1ccc2ncccc2c1)n1nnc2c(=O)[nH]ccc21 (racemic) [Example 10, (R/S)-1-(1-(quinolin-6-yl)ethyl)-1H-[1,2,3]triazolo[4,5-c]pyridin-4(5H)-one]
12 | Cc1cc(N2CCc3nnn(Cc4ccc5ncccc5c4)c3C2=O)sn1 [Example 2, 5-(3-methylisothiazol-5-yl)-3-(quinolin-6-ylmethyl)-6,7-dihydro-3H-[1,2,3]triazolo[4,5-c]pyridin-4(5H)-one]
3.4 | C[C@@H](c1ccc2ncccc2c1)n1nnc2ccn(-c3ccc(Cl)c(C(F)(F)F)c3)c(=O)c21 [Example 29, (S)-5-(4-chloro-3-(trifluoromethyl)phenyl)-3-(1-(quinolin-6-yl)ethyl)-3H-[1,2,3]triazolo[4,5-c]pyridin-4(5H)-one]
